The results in this text go back to ChEMBL document CHEMBL5143684, “Design, synthesis and biological evaluation of novel 5-methyl-2,4,5,6-tetrahydropyrrolo[3,4-c]pyrazole derivatives as potent potassium-competitive acid blockers” (Bioorg Med Chem, 2022).

Each structure is given as a SMILES string. A value given as a limit tells only on which side of the number the result lay.

Usually IC50 stands for the point on the concentration scale where inhibition reaches its midpoint. Usually inhibition in vivo stands for the percentage by which the read-out fell short of the control. A word on the bioavailability: it is dose-corrected exposure relative to a reference, in per cent. A high value points to good availability. As a reminder, the AUC(0-inf) is total exposure, with the tail of the curve extrapolated. Read a low AUC(0-inf) as low exposure. A word on the Cmax: it is the highest concentration seen after dosing.

Series [1] can be described thus: Inhibition of rabbit stomach K+ stimulated H(+)/K(+) ATPase activity incubated for 30 mins in presence of ATP and KCl by malachite green reagent based assay. Format: tissue-based, Oryctolagus cuniculus.
A short description of series [2]: Inhibition of gastric acid secretion in histamine induced Sprague-Dawley rat at 1 mg/kg, iv pretreated with compound for 15 mins followed by histamine dihydrochloride injection and measured after 3 hrs. Format: functional. As to conditions: 3.25 h, time 195 min.
Series [3] in a line: Oral bioavailability in Sprague-Dawley rat at 8 mg/kg by LC-MS/MS analysis. It counts as ADME, organism-based. As to conditions: in vivo.
Series [4] in a line: Elimination half life in Sprague-Dawley rat at 8 mg/kg, po by LC-MS/MS analysis. Format: ADME, organism-based. The settings on record: in vivo, read-out: beta t1/2 (converted).
Series [5] in a line: AUC (0 to infinity) in Sprague-Dawley rat at 8 mg/kg, po by LC-MS/MS analysis. Format: ADME, organism-based. Details: time infinity, dose 8 mg/kg, route po. As to conditions: in vivo.
A short description of series [6]: AUC (0 to infinity) in Sprague-Dawley rat at 2 mg/kg, iv by LC-MS/MS analysis. Format: ADME, organism-based. On the set-up: time infinity, dose 2 mg/kg, route iv. The settings on record: in vivo.
Series [7] is described as follows: Terminal half life in Sprague-Dawley rat at 2 mg/kg, iv by LC-MS/MS analysis. Format: ADME, organism-based. As to conditions: in vivo, read-out: beta t1/2 (converted).
A short description of series [8]: Cmax in Sprague-Dawley rat at 8 mg/kg, po by LC-MS/MS analysis. Format: ADME, organism-based. On the set-up: dose 8 mg/kg, route po. The settings on record: in vivo.
A short description of series [9]: AUC (0 to infinity) in Sprague-Dawley rat at 2 mg/kg, po. Format: ADME, organism-based. On the set-up: time infinity, dose 2 mg/kg, route po. As to conditions: in vivo.
Series [10] can be described thus: Half life in Sprague-Dawley rat at 0.75 mg/kg, iv measured up to 24 hrs. As to conditions: in vivo. Format: ADME, organism-based.
Series [11] can be described thus: Oral bioavailability in Sprague-Dawley rat at 2 mg/kg. It counts as ADME, organism-based. As to conditions: in vivo.
Series [12] in a line: Cmax in Sprague-Dawley rat at 2 mg/kg, po. Details: dose 2 mg/kg, route po. It counts as ADME, organism-based. As to conditions: in vivo.
A short description of series [13]: Half life in Sprague-Dawley rat at 2 mg/kg, po. It counts as ADME, organism-based. As to conditions: in vivo.
A short description of series [14]: AUC (0 to infinity) in Sprague-Dawley rat at 0.75 mg/kg, iv measured up to 24 hrs. Details: dose 0.75 mg/kg, time < 24 hrs, route iv. It counts as ADME, organism-based. As to conditions: in vivo.

Consider `Cc1ccc(-c2c3c(nn2Cc2cccc(O)c2)CN(C)C3)c(F)c1`, for which the concentration for half-maximal inhibition (IC50) in [1] was found to be 416 nM.
On the same count and under the same terms, with `CN1Cc2nn(Cc3cccc(OCCC(=O)O)c3)c(-c3ccccc3F)c2C1` the figure was 1840 nM; with `CN1Cc2nn(Cc3cccc(O)c3)c(-c3cccc(Cl)c3)c2C1`, 6350 nM; with `CN1Cc2nn(Cc3cccc(O)c3)c(-c3cccnc3F)c2C1`, 488 nM.
On the same count and under the same terms, with `CN1Cc2nn(Cc3ccc(F)cc3)c(-c3ccccc3F)c2C1` the figure was 585 nM; with `CN1Cc2nn(Cc3ccoc3)c(-c3ccccc3F)c2C1`, 3200 nM; with `CN1Cc2nn(Cc3cccc(N)c3)c(-c3ccccc3F)c2C1`, 894 nM.
As to `CN1Cc2nn(Cc3cccnc3)c(-c3ccccc3F)c2C1`, the IC50 in [1] worked out at 674 nM.
On the same count and under the same terms, with `COC(=O)c1ccccc1-c1c2c(nn1Cc1cccc(O)c1)CN(C)C2` the figure was more than 10000 nM; with `CN1Cc2nn(Cc3cccc(OCCC(N)=O)c3)c(-c3ccccc3F)c2C1`, 389 nM; with `CN1Cc2nn(Cc3ccccc3)c(-c3ccccc3F)c2C1`, 861 nM.
Same read-out and setting: to `CN1Cc2nn(Cc3cccc(Cl)c3)c(-c3ccccc3F)c2C1` belongs 354 nM; to `CN1Cc2nn(S(=O)(=O)c3cccnc3)c(-c3ccccc3F)c2C1`, 1100 nM; to `CN1Cc2nn(Cc3cccc(N4CCOCC4)c3)c(-c3ccccc3F)c2C1`, 410 nM.
On the same count and under the same terms, with `CN1Cc2nn(Cc3cccc(O)c3)c(-c3ccc(O)cc3)c2C1` the figure was 3580 nM.
`CN1Cc2nn(Cc3cccc(O)c3)c(-c3cccc(O)c3)c2C1`: in series [1], the IC50 worked out at 1240 nM.
Take `CN1Cc2nn(Cc3cccc(O)c3)c(-c3ccccc3F)c2C1`: the inhibition in vivo at 1 mg/kg in series [2] stood at 35.6%. Further, in [1], the half-maximal inhibitory concentration (IC50) was found to be 77.3 nM.
On to `CN1Cc2nn(Cc3cccc(O)c3)c(-c3ccccc3CO)c2C1`, for which the half-maximal inhibitory concentration (IC50) in [1] was more than 10000 nM.
Same read-out and setting: to `CN1Cc2cc(S(=O)(=O)c3ccccc3)n(-c3ccccc3F)c2C1` belongs 2110 nM.
The same measure, in the same setting: with `CN1Cc2nn(Cc3cc4ccccc4o3)c(-c3ccccc3F)c2C1` the figure was 4300 nM; with `CN1Cc2nn(Cc3cccc(-c4cccc(F)c4)c3)c(-c3ccccc3F)c2C1`, 328 nM.
On the same count and under the same terms, to `CN1Cc2nn(Cc3cccc(-c4cccc(C(F)(F)F)c4)c3)c(-c3ccccc3F)c2C1` belongs 440 nM; to `Cc1ccccc1-c1c2c(nn1Cc1cccc(O)c1)CN(C)C2`, 97.5 nM.
For `CN1Cc2nn(Cc3cccc(O)c3)c(-c3cccnc3)c2C1`, the half-inhibitory concentration (IC50) in [1] came to 4170 nM.
On to `CN1Cc2nn(Cc3cccc(-c4ccc(F)cc4)c3)c(-c3ccccc3F)c2C1`, for which, in series [1], the half-maximal inhibitory concentration (IC50) stood at 340 nM.
On the same count and under the same terms, with `CN1Cc2nn(S(=O)(=O)c3ccccc3)c(-c3ccccc3F)c2C1` the figure was 1030 nM.
In the case of `CN1Cc2nn(Cc3cccc(-c4cccc(C(N)=O)c4)c3)c(-c3ccccc3F)c2C1`, the inhibition in vivo at 1 mg/kg in series [2] amounted to 86.8%. This compound also showed a bioavailability in [3] of 16.4%. In series [1], the IC50 turned out to be 60.5 nM. In addition, the half-life in [4] was 0.8 h; in series [7], 0.49 h. Also, the AUC(0-inf) in series [5] stood at 341 ng·h/mL; in series [6], 520 ng·h/mL. Besides, in [8], the Cmax is 150 ng/mL.
Turning to `CN1Cc2nn(Cc3cccc(-c4cccc(N(C)C)c4)c3)c(-c3ccccc3F)c2C1`, the half-maximal inhibitory concentration (IC50) in [1] came to 313 nM.
The same measure, in the same setting: to `CN1Cc2nn(Cc3cccc([N+](=O)[O-])c3)c(-c3ccccc3F)c2C1` belongs 140 nM.
Take `CN1Cc2c(-c3ccccc3F)nn(S(=O)(=O)c3ccccc3)c2C1`: in [1], the IC50 was more than 10000 nM.
Same read-out and setting: to `CN1Cc2nn(Cc3cccc(-c4cccc(S(C)(=O)=O)c4)c3)c(-c3ccccc3F)c2C1` belongs 129 nM.
For the compound `CNCc1cc(-c2ccccc2F)n(S(=O)(=O)c2cccnc2)c1` [VONOPRAZAN], the values for the area under the curve AUC(0-inf) in series [9] and in series [14] were 27 ng·h/mL and 99 ng·h/mL, respectively. The half-life is 1.2 h in series [10] and 1.3 h in series [13]. In addition, the inhibition in vivo at 1 mg/kg in series [2] is 91%. Further, in series [1], the half-maximal inhibitory concentration (IC50) is 49.1 nM. Also, in series [11], the bioavailability amounted to 10%. Also, the peak concentration (Cmax) in series [12] came to 17 ng/mL.
Regarding `CC(C)Oc1ccc(-c2c3c(nn2Cc2cccc(O)c2)CN(C)C3)cc1`, the half-inhibitory concentration (IC50) in series [1] is more than 10000 nM.
The same measure, in the same setting: with `CN1Cc2nn(Cc3cccc(F)c3)c(-c3ccccc3F)c2C1` the figure was 342 nM.
Same read-out and setting: to `COc1cccc(Cn2nc3c(c2-c2ccccc2F)CN(C)C3)c1` belongs 290 nM.
The same measure, in the same setting: to `CN1Cc2nn(Cc3ccccc3F)c(-c3ccccc3F)c2C1` belongs 814 nM.
Take `CN1Cc2nn(Cc3cccc(O)c3)c(-c3ccccc3Cl)c2C1`: in series [1], the IC50 was determined as 104 nM.
On the same count and under the same terms, with `CN1Cc2nn(Cc3cccc(O)c3)c(-c3ccccc3)c2C1` the figure was 1850 nM; with `CN1Cc2nn(Cc3cccc(-c4ccccc4F)c3)c(-c3ccccc3F)c2C1`, 376 nM.
Regarding `CN1Cc2nn(Cc3cccc(OCC(N)=O)c3)c(-c3ccccc3F)c2C1`, the IC50 in series [1] came to 747 nM.
Turning to `CN1Cc2nn(Cc3ccsc3)c(-c3ccccc3F)c2C1`, in series [1], the half-maximal inhibitory concentration (IC50) worked out at 2160 nM.
Take `CN1Cc2nn(Cc3cccc(-c4cccc(C#N)c4)c3)c(-c3ccccc3F)c2C1`: the IC50 in series [1] worked out at 396 nM.
